From patent EP4707277A1, “NOVEL HETEROCYCLIC AMINE DERIVATIVES AND PHARMACEUTICAL COMPOSITION COMPRISING SAME” (Daewoong Pharmaceutical Co., Ltd., priority 2023, dated 2024) come the findings set out here.

Like-named read-outs stand apart in the source and are kept apart here. Where only a bound is given, the exact number is not on record here.

In one experiment the target is T1, ITK (Homo sapiens, UniProt Q08881).
T1 construct: purchased Signalchem I13-11G-10
T1 sequence (Q08881 1-620): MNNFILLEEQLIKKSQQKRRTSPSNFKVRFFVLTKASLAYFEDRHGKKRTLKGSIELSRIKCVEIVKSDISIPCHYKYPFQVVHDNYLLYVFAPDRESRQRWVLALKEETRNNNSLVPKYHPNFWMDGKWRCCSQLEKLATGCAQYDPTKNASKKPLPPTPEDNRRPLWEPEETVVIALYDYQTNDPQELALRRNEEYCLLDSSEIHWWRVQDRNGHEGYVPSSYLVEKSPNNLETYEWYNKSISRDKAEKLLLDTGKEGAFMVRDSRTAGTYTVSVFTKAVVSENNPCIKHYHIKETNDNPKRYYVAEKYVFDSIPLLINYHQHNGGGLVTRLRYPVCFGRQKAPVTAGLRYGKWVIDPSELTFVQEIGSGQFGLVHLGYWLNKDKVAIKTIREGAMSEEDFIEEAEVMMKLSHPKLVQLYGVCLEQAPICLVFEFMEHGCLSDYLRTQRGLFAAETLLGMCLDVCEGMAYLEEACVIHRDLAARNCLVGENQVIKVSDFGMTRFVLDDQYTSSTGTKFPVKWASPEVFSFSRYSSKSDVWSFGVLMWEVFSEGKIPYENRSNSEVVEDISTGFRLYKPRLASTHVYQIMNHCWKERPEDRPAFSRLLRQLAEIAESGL
Description: Inhibitory activity against ITK, ADP-Glo Kinase system (Promega). Format: biochemical. The method in brief:
(§1)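 IC50 values were fitted from kinase reactions run for 1 h at 30°C with either 1 mM ATP or ATP at Km (10 µM for BTK, 25 µM for ITK). Reactions used 0.2 µg/µl poly(Glu4,Tyr1), recombinant human enzyme (BTK 10 ng, ITK 4 ng per reaction) in Tris pH 7.5 Mn/Mg buffer with 1% DMSO. ADP formed was read by ADP-Glo luminescence.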
On the technique in general: ADP-Glo turns the ADP formed in a reaction into a luminescent signal.

In the next experiment the target is T2, BTK (Homo sapiens, UniProt Q06187).
T2 construct: purchased Signalchem B10-10H
Description: Inhibitory activity against BTK, ADP-Glo Kinase system (Promega). The experiment is classed as biochemical. The procedure, abridged:
as §1

Setting [1] is: 1mM ATP, read-out: ITK IC50(nM) 1mM ATP.
[2] abbreviates: 1mM ATP, read-out: BTK IC50(nM) 1mM ATP.
Where [3] appears, read: Km ATP (ITK: 25uM), read-out: ITK IC50(nM) Km ATP.
Where [4] appears, read: Km ATP (BTK: 10 uM), read-out: BTK IC50(nM) Km ATP.

T2 sequence (Q06187 whole entry): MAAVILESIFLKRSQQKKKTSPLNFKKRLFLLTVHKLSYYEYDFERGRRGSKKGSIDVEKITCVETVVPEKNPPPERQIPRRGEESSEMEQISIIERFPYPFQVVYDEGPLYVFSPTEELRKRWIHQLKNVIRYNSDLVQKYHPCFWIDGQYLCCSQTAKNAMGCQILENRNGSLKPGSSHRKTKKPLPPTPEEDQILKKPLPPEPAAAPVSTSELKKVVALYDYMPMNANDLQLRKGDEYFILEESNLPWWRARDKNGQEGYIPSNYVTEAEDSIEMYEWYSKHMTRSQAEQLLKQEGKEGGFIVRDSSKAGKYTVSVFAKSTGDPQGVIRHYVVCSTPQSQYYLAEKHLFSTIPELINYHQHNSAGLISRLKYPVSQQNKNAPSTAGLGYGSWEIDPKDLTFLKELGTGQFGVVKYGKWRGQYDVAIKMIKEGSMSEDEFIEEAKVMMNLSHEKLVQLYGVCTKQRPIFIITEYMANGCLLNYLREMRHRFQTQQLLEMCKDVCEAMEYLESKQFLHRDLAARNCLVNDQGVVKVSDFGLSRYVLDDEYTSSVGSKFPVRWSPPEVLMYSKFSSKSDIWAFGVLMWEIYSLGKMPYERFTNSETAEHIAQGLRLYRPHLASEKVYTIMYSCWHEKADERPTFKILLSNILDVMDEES

Usually IC50 stands for the point on the concentration scale where inhibition reaches its midpoint. Consider `C=CC(=O)N1CC=C(c2nc(Nc3cc(OC)ncn3)cc3c2ccn3C(C)C)CC1` [Example 46, 1-(4-(1-isopropyl-6-((6-methoxypyrimidin-4-yl)amino)-1H-pyrrolo[3,2-c]pyridin-4-yl)-3,6-dihydropyridin-1(2H)-yl)prop-2-en-1-one], for which the half-maximal inhibitory concentration (IC50) on ITK (setting [1]) is 100 to 500 nM; at BTK (setting [2]), no more than 20 nM.
Take `C=CC(=O)N1C[C@@H](F)[C@H](Oc2nc(Nc3ncc(C)s3)cc3c2ccn3CC(C)CC)C1` (stereo partly drawn) [Example 173, 1-((3R,4R)-3-fluoro-4-((1-(2-methylbutyl)-6-((5-methylthiazol-2-yl)amino)-1H-pyrrolo[3,2-c]pyridin-4-yl)oxy)pyrrolidin-1-yl)prop-2-en-1-one]: the IC50 at ITK (setting [1]) and on BTK (setting [2]) was no more than 20 nM throughout.
As for `C=CC(=O)Nc1cc(-c2nc(Nc3ncc(C)s3)cc3c2ccn3CC2CC2)ccc1C` [Example 65, N-(5-(1-(cyclopropylmethyl)-6-((5-methylthiazol-2-yl)amino)-1H-pyrrolo[3,2-c]pyridin-4-yl)-2-methylphenyl)acrylamide], the values for the concentration for half-maximal inhibition (IC50) on ITK (setting [3]) and on BTK (setting [4]) were 20 to 100 nM and no more than 20 nM, respectively.
Regarding `C=CC(=O)N1CC=C(c2nc(Nc3cc(C)ccn3)cc3c2ccn3C(C)C)CC1` [Example 49, 1-(4-(1-isopropyl-6-((4-methylpyridin-2-yl)amino)-1H-pyrrolo[3,2-c]pyridin-4-yl)-3,6-dihydropyridin-1(2H)-yl)prop-2-en-1-one], the half-maximal inhibitory concentration (IC50) lay within 100 to 500 nM at ITK (setting [1]), 20 to 100 nM at ITK (setting [3]), 100 to 500 nM at BTK (setting [2]) and 20 to 100 nM at BTK (setting [4]).
For the compound `C=CC(=O)Nc1cccc(-c2nc(Nc3ncc(C)s3)cc3c2ccn3C)c1OC` [Example 52, N-(2-methoxy-3-(1-methyl-6-((5-methylthiazol-2-yl)amino)-1H-pyrrolo[3,2-c]pyridin-4-yl)phenyl)acrylamide], the half-maximal inhibitory concentration (IC50) at ITK (setting [3]) and on BTK (setting [4]) was no more than 20 nM in each case.
As to `C=CC(=O)N1C[C@@H](Oc2nc(Nc3ncc(C)s3)cc3c2ccn3CC(C)C)C[C@@H]1C` [Example 179, 1-((2S,4S)-4-((1-isobutyl-6-((5-methylthiazol-2-yl)amino)-1H-pyrrolo[3,2-c]pyridin-4-yl)oxy)-2-methylpyrrolidin-1-yl)prop-2-en-1-one], the half-maximal inhibitory concentration (IC50) at ITK (setting [1]) and at BTK (setting [2]) was no more than 20 nM in each case.
In the case of `C=CC(=O)N1CC=C(c2nc(Nc3ncc(C)s3)cc3c2ccn3Cc2ccccc2)CC1` [Example 15, 1-(4-(1-benzyl-6-((5-methylthiazol-2-yl)amino)-1H-pyrrolo[3,2-c]pyridin-4-yl)-3,6-dihydropyridin-1(2H)-yl)prop-2-en-1-one], the IC50 at ITK (setting [3]) and on BTK (setting [4]) was no more than 20 nM in each case.
In the case of `CC#CC(=O)N1C[C@H](F)[C@H](Oc2nc(Nc3ncc(C)s3)cc3c2ccn3CC(C)C)C1` [Example 230, 1-((3S,4R)-3-fluoro-4-((1-isobutyl-6-((5-methylthiazol-2-yl)amino)-1H-pyrrolo[3,2-c]pyridin-4-yl)oxy)pyrrolidin-1-yl)but-2-yn-1-one], the half-inhibitory concentration (IC50) on ITK (setting [1]) and at BTK (setting [2]) was greater than 500 nM throughout.
With `C=CC(=O)N1C[C@H](F)[C@H](Oc2nc(Nc3cc[nH]n3)cc3c2ccn3CC(C)C)C1` [Example 195, 1-((3R,4S)-3-((6-((1H-pyrazol-3-yl)amino)-1-isobutyl-1H-pyrrolo[3,2-c]pyridin-4-yl)oxy)-4-fluoropyrrolidin-1-yl)prop-2-en-1-one], the results for the concentration for half-maximal inhibition (IC50) on ITK (setting [1]) and at BTK (setting [2]) were 100 to 500 nM and 20 to 100 nM, respectively.
Turning to `C=CC(=O)N1C[C@H](F)[C@H](Oc2nc(Nc3ncc(C(=O)NC)s3)cc3c2ccn3CC(C)C)C1` [Example 182, 2-((4-(((3R,4S)-1-acryloyl-4-fluoropyrrolidin-3-yl)oxy)-1-isobutyl-1H-pyrrolo[3,2-c]pyridin-6-yl)amino)-N-methylthiazole-5-carboxamide], the IC50 at ITK (setting [1]) and at BTK (setting [2]) was no more than 20 nM each time.
Turning to `C=CC(=O)N1CCC[C@H](Oc2nc(Nc3ncc(C)s3)cc3c2ccn3CC)C1` [Example 153, (S)-1-(3-((1-ethyl-6-((5-methylthiazol-2-yl)amino)-1H-pyrrolo[3,2-c]pyridin-4-yl)oxy)piperidin-1-yl)prop-2-en-1-one], the half-maximal inhibitory concentration (IC50) at ITK (setting [1]) is 20 to 100 nM; at BTK (setting [2]), no more than 20 nM.
In the case of `C=CC(=O)N1CC(Oc2nc(Nc3ncc(C)s3)cc3c2ccn3CC(C)C)C1` [Example 118, 1-(3-((1-isobutyl-6-((5-methylthiazol-2-yl)amino)-1H-pyrrolo[3,2-c]pyridin-4-yl)oxy)azetidin-1-yl)prop-2-en-1-one], the half-maximal inhibitory concentration (IC50) at ITK (setting [3]) and at BTK (setting [4]) was 20 to 100 nM in each case.
In the case of `C=CC(=O)Nc1cccc(-c2nc(Nc3ncc(C)s3)cc3c2ccn3C)c1` [Example 50, N-(3-(1-methyl-6-((5-methylthiazol-2-yl)amino)-1H-pyrrolo[3,2-c]pyridin-4-yl)phenyl)acrylamide], the figures for the half-maximal inhibitory concentration (IC50) on ITK (setting [3]) and at BTK (setting [4]) were 20 to 100 nM and no more than 20 nM, respectively.
For the compound `C=CC(=O)N1C[C@@H](F)[C@H](Oc2nc(Nc3ncc(C)s3)cc3c2ccn3[C@@H](C)CC)C1` [Example 113, 1-((3R,4R)-3-((1-((S)-sec-butyl)-6-((5-methylthiazol-2-yl)amino)-1H-pyrrolo[3,2-c]pyridin-4-yl)oxy)-4-fluoropyrrolidin-1-yl)prop-2-en-1-one], the IC50 at ITK (setting [1]) and on BTK (setting [2]) was no more than 20 nM each time.
Regarding `C=CC(=O)N1CC(Oc2nc(Nc3ncc(C)s3)cc3c2ccn3CC2CC2)C1` [Example 145, 1-(3-((1-(cyclopropylmethyl)-6-((5-methylthiazol-2-yl)amino)-1H-pyrrolo[3,2-c]pyridin-4-yl)oxy)azetidin-1-yl)prop-2-en-1-one], the IC50 on ITK (setting [1]) and at BTK (setting [2]) was no more than 20 nM in each case.
In the case of `C=CC(=O)Nc1c(C)ccc(-c2nc(Nc3ncc(C)s3)cc3c2ccn3C)c1C` [Example 56, N-(2,6-dimethyl-3-(1-methyl-6-((5-methylthiazol-2-yl)amino)-1H-pyrrolo[3,2-c]pyridin-4-yl)phenyl)acrylamide], the IC50 is greater than 500 nM on ITK (setting [1]), no more than 20 nM at ITK (setting [3]), no more than 20 nM at BTK (setting [2]) and no more than 20 nM at BTK (setting [4]).
With `C=CC(=O)N1C[C@@H](Oc2nc(Nc3ncc(C)s3)cc3c2ccn3C(C)C)C[C@@H]1C` [Example 88, 1-((2S,4S)-4-((1-isopropyl-6-((5-methylthiazol-2-yl)amino)-1H-pyrrolo[3,2-c]pyridin-4-yl)oxy)-2-methylpyrrolidin-1-yl)prop-2-en-1-one], the IC50 at ITK (setting [1]) and at BTK (setting [2]) was no more than 20 nM throughout.
Consider `C=CC(=O)N1CC=C(c2nc(Nc3ncc(C)s3)cc3c2ccn3CC(C)C)CC1` [Example 6, 1-(4-(1-isobutyl-6-((5-methylthiazol-2-yl)amino)-1H-pyrrolo[3,2-c]pyridin-4-yl)-3,6-dihydropyridin-1(2H)-yl)prop-2-en-1-one], for which the half-inhibitory concentration (IC50) on ITK (setting [1]) is 100 to 500 nM; on ITK (setting [3]) it was no more than 20 nM; on BTK (setting [2]), 20 to 100 nM; at BTK (setting [4]), no more than 20 nM.
In the case of `C=CC(=O)N1CC[C@@H](Oc2nc(Nc3ncc(C)s3)cc3c2ccn3CC(C)C)C1` (stereo in doubt) [Example 82, (R)-1-(3-((1-isobutyl-6-((5-methylthiazol-2-yl)amino)-1H-pyrrolo[3,2-c]pyridin-4-yl)oxy)pyrrolidin-1-yl)prop-2-en-1-one], the IC50 at ITK (setting [1]) and on BTK (setting [2]) was greater than 500 nM in each case.
As to `C=CC(=O)N1C[C@@H](F)[C@H](Oc2nc(Nc3ncc(C)s3)cc3c2ccn3CC2CC2)C1` [Example 108, 1-((3R,4R)-3-((1-(cyclopropylmethyl)-6-((5-methylthiazol-2-yl)amino)-1H-pyrrolo[3,2-c]pyridin-4-yl)oxy)-4-fluoropyrrolidin-1-yl)prop-2-en-1-one], the half-maximal inhibitory concentration (IC50) at ITK (setting [1]) and at BTK (setting [2]) was no more than 20 nM each time.
Take `C=CC(=O)N1CCC1COc1nc(Nc2ncc(C)s2)cc2c1ccn2C1CCCC1` (stereo not shown) [Example 218, 1-(2-(((1-cyclopentyl-6-((5-methylthiazol-2-yl)amino)-1H-pyrrolo[3,2-c]pyridin-4-yl)oxy)methyl)azetidin-1-yl)prop-2-en-1-one]: the IC50 on ITK (setting [1]) and at BTK (setting [2]) was no more than 20 nM in each case.
As to `C=CC(=O)N1CC[C@H](Oc2nc(Nc3ncc(C)s3)cc3c2ccn3CC)C1` [Example 125, (S)-1-(3-((1-ethyl-6-((5-methylthiazol-2-yl)amino)-1H-pyrrolo[3,2-c]pyridin-4-yl)oxy)pyrrolidin-1-yl)prop-2-en-1-one], the IC50 at ITK (setting [3]) and at BTK (setting [4]) was no more than 20 nM in each case.
In the case of `C=CC(=O)N1CCC[C@H](Oc2nc(Nc3ncc(C)s3)cc3c2ccn3CC2CC2)C1` [Example 149, (S)-1-(3-((1-(cyclopropylmethyl)-6-((5-methylthiazol-2-yl)amino)-1H-pyrrolo[3,2-c]pyridin-4-yl)oxy)piperidin-1-yl)prop-2-en-1-one], the IC50 at ITK (setting [1]) and at BTK (setting [2]) was no more than 20 nM throughout.
